In article PMC10298275, “Antiproliferative Activity and Impact on Human Gut Microbiota of New O-Alkyl Derivatives of Naringenin and Their Oximes” (International Journal of Molecular Sciences, 2023):
Values after ≈ are worked out from the molar mass of the structure shown. Like-named read-outs stand apart in the source and are kept apart here.

Columns and labels:
SRB assay, cytotoxicity [1] = type: cell-based, human; details: human, HT-29 cells; HT-29, SRB, 24 h exposure, three independent repeats; read-out: Cytotoxicity (IC50 ± SD)
Procedure: (§1) The HT-29 cells (ATCC, Manassas, VA, USA) were cultured within α-MEM (IIET PAS, Wrocław, Poland) supplemented with 10% fetal bovine serum (Sigma, St. Louis, MO, USA), antimycotic (100 μg/mL penicillin, 100 μg/mL streptomycin and 0.25 μg/mL amphotericin) (Sigma) and 2 mM glutamine (Sigma). The 3T3-L1 cells (ATCC, Manassas, VA, USA) were cultivated using DMEM high-glucose medium (IIET PAS, Wrocław, Poland) supplemented as above. Both cell lines were cultured at 37 °C in an atmosphere of 5% CO2.
(§2) The sulforhodamine B (SRB) assay was performed according to a previously published protocol. Briefly, 1 × 10^4 HT-29 or 5 × 10^3 3T3-L1 cells were seeded into 96-well plates. After attaching to the plate surface, the cells were incubated with 100, 75, 50, 25, 10 or 1 µg/mL of the investigated compounds for 24 h. After this time, proteins were precipitated with trichloroacetic acid and stained with SRB. The absorbance was measured at 560 nm using a GloMax Discover Microplate Reader (Promega, Madison, WI, USA).

[2] = tested on: Enterococcus faecalis ATCC 29212; experiment: MBC assay; type: cell-based; details: Enterococcus faecalis, ATCC29212; E. faecalis ATCC 29212; read-out: MBC
Procedure: (§3) The minimum bactericidal concentration (MBC) was tested for all naringenin derivatives. First, 10 µL of medium was taken from the plate, on which the MIC was determined for the MIC value, the value below and the two values above. This volume was transferred to TSA or MC agar. After 18–24 h (depending on strain) incubation at 37 °C, colonies were counted. The concentration of test compounds at which no bacterial growth was observed was defined as the MBC value. Each experiment was repeated 3 times.

Escherichia coli K12 [3] = experiment: MBC assay; type: cell-based; details: Escherichia coli; E. coli K12; read-out: MBC
Procedure: as §3

[4] = tested on: Staphylococcus aureus ATCC 25923; experiment: MBC assay; type: cell-based; details: Staphylococcus aureus, ATCC25923; S. aureus ATCC 25923; read-out: MBC
Procedure: as §3

[5] = tested on: Enterococcus faecalis ATCC 29212; experiment: MIC, microdilution method; type: cell-based; details: E. faecalis ATCC 29212, MHB, 24 h, 37 °C, tested 512 to 1 µg/mL
Procedure: (§4) Non-pathogenic reference strains representing the intestinal microbiome were used for the studies: Escherichia coli K12, Staphylococcus aureus ATCC 25923 and Enterococcus faecalis ATCC 29212. All strains were obtained from the collection of the Department of Microbiology at the Medical University of Wrocław.
(§5) The strains were received from the museum (−80 °C) and grown in tryptic soy broth (TSB, OXOID, Basingstoke, UK) under continuous shaking conditions (MaxQTM6000 incubator shaker, Thermo Scientific, Waltham, MA, USA) at 125 rpm at 37 °C. Then, they were moved to the growth media, namely tryptic soy agar (TSA, OXOID, Basingstoke, UK) and MacConkey agar (MC, Millipore, Darmstadt, Germany) for S. aureus or E. faecalis and E. coli, respectively.
(§6) A fresh 18–24 h culture was used for each study. For this purpose, a culture with a density of 1.5 × 10^8 CFU/mL in Mueller–Hinton broth (MHB, OXOID, Basingstoke, UK) was prepared and used for further microdilution studies.
(§7) The antimicrobial activity of the O-alkyl derivatives of naringenin and their oximes was tested in vitro using the microdilution method, showing the minimum inhibitory concentration (MIC), in accordance with the recommendations of the European Antimicrobial Susceptibility Testing Committee EUCAST [44]. MICs were determined in 96-well microdilution plates. The tests were carried out in MHB medium. The O-alkyl derivatives of naringenin and their oximes were tested in the concentration range of 512 to 1 µg/mL in a geometric process in MHB medium. The final concentration of the test strains in each test well was 5 × 10^5 CFU/mL. MICs were read after 18 h (for E. coli and S. aureus) and 24 h (for E. faecalis) incubation at 37 °C.
(§8) A strain growth control (tested strain in medium), background control for tested compounds (naringenin derivatives in MHB), medium control (only pure MHB) and compound solvent control (DMSO at test compound concentration, strain and MHB) were set for each experiment. Each test was set up with three independent experiments, each as three separate replicates.
(§9) The […], OD600, was measured in a plate reader (ASYS UVM340, BIOCHROM Ltd., Cambridge, UK). The background control of the tested compounds and the clean medium were included in the absorbance results.

Escherichia coli K12 [6] = experiment: MIC, microdilution method; type: cell-based; details: Escherichia coli; E. coli K12; MHB, 18 h, 37 °C; tested 512 to 1 µg/mL; read-out: MIC
Procedure: as §4, §5, §6, §7, §8, §9

[7] = tested on: Staphylococcus aureus ATCC 25923; experiment: MIC, microdilution method; type: cell-based; details: S. aureus ATCC 25923, MHB, 18 h, 37 °C, tested 512 to 1 µg/mL
Procedure: as §4, §5, §6, §7, §8, §9

HT-29 cells [8] = experiment: MTT assay, cell viability; type: cell-based, human; details: 24 h; for reduction in cell viability: HT-29, MTT, 10 µg/mL dose; for effect on colon adenocarcinoma cells (viability, MTT): HT-29, highest concentration 100 µg/mL
Procedure: as §1
First, 1 × 10^4 HT-29 cells or 5 × 10^3 3T3-L1 cells were seeded into a 96-well plate and incubated for one night. Then, cells were treated with different concentrations of the investigated compounds within 24 h. Afterwards, the medium was replaced with a fresh medium containing 0.5 mg/mL of 3-(4,5-dimethylthiazol-2-yl)-2,5-diphenyl-2H-tetrazolium bromide (MTT, Sigma) and incubated for 2 h at 37 °C. After removing the medium, the formazan salts were dissolved in dimethyl sulfoxide (DMSO, Sigma), and the absorbance of the solution was measured at 560 nm using a plate reader.

SRB assay, cytotoxicity [9] = type: cell-based, mouse; details: mouse, 3T3-L1 cells; 3T3-L1, SRB, 24 h exposure, three independent repeats; read-out: Cytotoxicity (IC50 ± SD)
Procedure: as §1, §2

HT-29 cells [10] = experiment: SRB assay, cytotoxicity; type: cell-based, human; details: HT-29, SRB, up to 100 µg/mL
Procedure: as §1, §2

[11] = Enterococcus faecalis, ATCC29212, read-out: MIC
[12] = Staphylococcus aureus, ATCC25923, read-out: MIC

Row | SMILES | melting point [°C] | MIC [5, 11] [µg/mL] | MIC (Escherichia coli K12 [6]) [µg/mL] | MIC [7, 12] [µg/mL] | MIC [5] | MIC [7] | IC50 at 24 h (SRB assay, cytotoxicity [1]) [µg/mL] | MBC [2] [µg/mL] | MBC (Escherichia coli K12 [3]) [µg/mL] | MBC [4] [µg/mL] | reduction in cell viability (HT-29 cells [8]) | IC50 at 24 h (SRB assay, cytotoxicity [9]) [µg/mL] | effect on the proliferation of the HT-29 cell line (HT-29 cells [10]) | effect on colon adenocarcinoma cells (viability, MTT) (HT-29 cells [8])
1 | CCCCCCCCOc1ccc([C@@H]2CC(=O)c3c(O)cc(OCCCCCCCC)cc3O2)cc1 [A6, 7,4′-Di-O-octylnaringenin] | 60 to 61 | 32 (≈ 64.4 µM) | > 512 | > 512 | – | >512 (>512) µg/mL | > 100 | > 512 | > 512 | > 512 | – | > 100 | no effect on the proliferation | weak
2 | CCCCCCOc1cc(O)c2c(c1)O[C@H](c1ccc(O)cc1)CC2=O [A1, 7-O-hexylnaringenin] | – | 16 (≈ 44.9 µM) | > 512 | 16 (≈ 44.9 µM) | – | – | 14.3 ± 0.84 (≈ 40.1 µM) | > 512 | > 512 | > 512 | – | 10.8 ± 1.1 (≈ 30.4 µM) | – | completely inhibited
3 | CCCCCCCOc1cc(O)c2c(c1)O[C@H](c1ccc(O)cc1)CC2=O [A3, 7-O-Heptylnaringenin] | 114 to 115 | 32 (≈ 86.4 µM) | > 512 | 16 (≈ 43.2 µM) | – | – | 14.2 ± 0.56 (≈ 38.3 µM) | > 512 | > 512 | > 512 | – | 7.61 ± 1.2 (≈ 20.5 µM) | – | completely inhibited
4 | CCCCCCCCCOc1cc(O)c2c(c1)O[C@H](c1ccc(O)cc1)CC2=O [A7, 7-O-Nonylnaringenin] | 115 to 116 | 16 (≈ 40.2 µM) | > 512 | 16 (≈ 40.2 µM) | – | – | 15 ± 0.41 (≈ 37.7 µM) | > 512 | > 512 | > 512 | – | 8.65 ± 0.71 (≈ 21.7 µM) | – | completely inhibited
5 | CCCCCCCCOc1cc(O)c2c(c1)O[C@H](c1ccc(O)cc1)CC2=O [A5, 7-O-Octylnaringenin] | 111 to 113 | 16 (≈ 41.6 µM) | > 512 | 8 (≈ 20.8 µM) | – | – | 14.63 ± 0.13 (≈ 38.1 µM) | > 512 | > 512 | > 512 | – | 8.86 ± 0.67 (≈ 23 µM) | – | completely inhibited

More lines, main results first:

Row | melting point [°C] | MIC [5, 11] [µg/mL] | MIC (Escherichia coli K12 [6]) [µg/mL] | MIC [7, 12] [µg/mL] | MIC [5] | MIC [7] | SMILES | IC50 at 24 h (SRB assay, cytotoxicity [1]) [µg/mL] | MBC [2] [µg/mL] | MBC (Escherichia coli K12 [3]) [µg/mL] | MBC [4] [µg/mL] | reduction in cell viability (HT-29 cells [8]) | IC50 at 24 h (SRB assay, cytotoxicity [9]) [µg/mL] | effect on the proliferation of the HT-29 cell line (HT-29 cells [10]) | effect on colon adenocarcinoma cells (viability, MTT) (HT-29 cells [8])
6 | 186 to 187 | 16 (≈ 41.5 µM) | > 512 | 64 (≈ 166 µM) | – | – | CCCCCCCOc1cc(O)c2c(c1)O[C@H](c1ccc(O)cc1)CC2=NO [B3, 7-O-Heptylnaringenin oxime] | 11.3 ± 0.81 (≈ 29.3 µM) | 512 (≈ 1330 µM) | > 512 | 128 (≈ 332 µM) | more than 50% | 7.77 ± 1.11 (≈ 20.2 µM) | – | –
7 | 87 to 88 | > 512 | > 512 | > 512 | >512 (>512) µg/mL | – | CCCCCCCCCOc1ccc([C@@H]2CC(=NO)c3c(O)cc(OCCCCCCCCC)cc3O2)cc1 [B8, 7,4′-Di-O-nonylnaringenin oxime] | > 100 | > 512 | > 512 | > 512 | – | > 100 | no effect on the proliferation | –
8 | 85 to 86 | > 512 | > 512 | > 512 | >512 (>512) µg/mL | – | CCCCCCCCOc1ccc([C@@H]2CC(=NO)c3c(O)cc(OCCCCCCCC)cc3O2)cc1 [B6, 7,4′-Di-O-octylnaringenin oxime] | > 100 | > 512 | > 512 | > 512 | – | > 100 | no effect on the proliferation | –
9 | 176 to 178 | 8 (≈ 19.3 µM) | > 512 | 128 (≈ 310 µM) | – | – | CCCCCCCCCOc1cc(O)c2c(c1)O[C@H](c1ccc(O)cc1)CC2=NO [B7, 7-O-Nonylnaringenin oxime] | 11.2 ± 1.27 (≈ 27.2 µM) | > 512 | > 512 | > 512 | more than 50% | 6.08 ± 0.64 (≈ 14.7 µM) | – | –
10 | 82 to 83 | > 512 | > 512 | > 512 | >512 (>512) µg/mL | – | CCCCCCCOc1ccc([C@@H]2CC(=NO)c3c(O)cc(OCCCCCCC)cc3O2)cc1 [B4, 7,4′-Di-O-heptylnaringenin oxime] | > 100 | > 512 | > 512 | > 512 | – | > 100 | no effect on the proliferation | –
11 | 183 to 185 | 16 (≈ 40.1 µM) | > 512 | 256 (≈ 641 µM) | – | – | CCCCCCCCOc1cc(O)c2c(c1)O[C@H](c1ccc(O)cc1)CC2=NO [B5, 7-O-Octylnaringenin oxime] | 9.96 ± 1.13 (≈ 24.9 µM) | 256 (≈ 641 µM) | > 512 | > 512 | more than 50% | 7.1 ± 1.57 (≈ 17.8 µM) | – | –
12 | – | 16 (≈ 43.1 µM) | > 512 | 8 (≈ 21.5 µM) | – | – | CCCCCCOc1cc(O)c2c(c1)O[C@H](c1ccc(O)cc1)CC2=NO [B1, 7-O-hexylnaringenin oxime] | 11.3 ± 1.63 (≈ 30.5 µM) | 256 (≈ 689 µM) | > 512 | 32 (≈ 86.2 µM) | more than 50% | 8.3 ± 0.72 (≈ 22.3 µM) | – | –
13 | 95 to 96 | > 512 | > 512 | > 512 | >512 (>512) µg/mL | – | CCCCCCCCCCCOc1ccc([C@@H]2CC(=NO)c3c(O)cc(OCCCCCCCCCCC)cc3O2)cc1 [B10, 7,4′-Di-O-undecylnaringenin oxime] | > 100 | > 512 | > 512 | > 512 | – | > 100 | no effect on the proliferation | –
